The COVID Moonshot data (paper PMC7615835)
“And” between values parts separate entries of the source, which are not always exact repeats. Identical values can stand only once.

What follows are compounds tested against SARS-CoV-2 Main Protease (SARS-CoV-2) (UniProt P0DTD1).

Structure (SMILES) | IC50
CC(C)(C)c1ccc(N(C(=O)c2cocn2)C(C(=O)NCc2ccncc2)c2cccnc2)cc1 (stereo not drawn) | > 99.5 µM
CNC(=O)CN1Cc2ccc(Cl)cc2C2(CCN(c3cncc4ccc(OCCN(C)C)cc34)C2=O)C1 (stereo not drawn) | 0.21 µM
O=C(Cc1cc(Cl)cc(Nc2ccc(C(F)(F)F)cc2[N+](=O)[O-])c1)Nc1cncc2ccccc12 | 2.24 µM
CN1CCN(c2ccccc2Nc2cc(Cl)cc(CC(=O)Nc3cncc4ccccc34)c2)CC1 | 2.09 µM
O=C(Cc1cccc(Cl)c1)Nc1ncn2ccccc12 | > 99.5 µM
O=C(NCCc1cccc(F)c1)C(c1cccnc1)N(C(=O)c1cnc[nH]1)C1CCC2OCCC2C1 (stereo not drawn) | > 99 µM
CC(C)(C)c1ccc(N(C(=O)c2cn3ccccc3n2)C(C(=O)NCCc2cccc(F)c2)c2cccnc2)cc1 (stereo not drawn) | 18.2 µM
O=C(Cc1cc(Cl)cc(NC23CC4CC(CC(O)(C4)C2)C3)c1)Nc1cncc2ccccc12 | 2.87 µM
C[C@H]1C[C@H](C(=O)Nc2cncc3ccccc23)c2cc(Cl)ccc2O1 (stereo in doubt) | 52.1 µM
CS(=O)(=O)c1ncc(Cl)c(C(=O)Nc2ccccc2Cc2ccccc2)n1 | 0.469 µM and 0.54 µM
CC1(NC(=O)CN2Cc3ccc(Cl)cc3C3(CCN(c4cncc5ccccc45)C3=O)C2)CC1 (stereo not drawn) | 0.271 µM
CC(C)Oc1ccc(N(C(=O)c2cocn2)C(C(=O)NCCc2cccc(F)c2)c2cccnc2)cc1 (stereo not drawn) | 0.609 µM
C=CC(=O)N(c1ccc(C(C)(C)C)cc1)C(C(=O)NCCc1cccc(F)c1)c1cccnc1 (stereo not drawn) | 2.96 µM
Cc1ccncc1NC(=O)Cc1cc(Cl)cc(NC2CCC(F)(F)C2O)c1 (stereo not drawn) | 23 µM
O=C1OC2(CCOc3ccc(Cl)cc32)C(=O)N1c1cncc2ccccc12 (stereo not drawn) | > 99.5 µM
COc1cc(OC)[n+](C)c(C#N)n1 | > 99.5 µM
CN(C)C(=O)CNC(=O)C(c1cccnc1)N(C(=O)c1cocn1)c1ccc(C(C)(C)C)cc1 (stereo not drawn) | 29.2 µM
O=C(NCCc1cccc(F)c1)C(c1cccnc1)N(C(=O)c1cocn1)c1ccc2scnc2c1 (stereo not drawn) | 84 µM
C=CC(=O)NCc1ccccc1S(=O)(=O)NC | > 99.5 µM
CC(C(=O)OC1CCCN(Cc2cccc(C(F)(F)F)c2)C1=O)n1cnc(C#N)n1 (stereo not drawn) | 8.45 µM and 10.2 µM
O=C(Nc1cncc2ccccc12)C1COCc2c(Cl)cccc21 (stereo not drawn) | 7.02 µM
Cc1c(NC(=O)C2CCOc3ccc(Cl)cc32)cncc1N(C)C (stereo not drawn) | > 99.5 µM
COCCc1ccc(Cl)cc1CN1CCN(C(=O)CCl)CC1 | 2.2 µM
O=C(CCl)N1CCN(Cc2ccsc2)CC1 | 3.27 µM and 3.74 µM

Structure (SMILES) | IC50
O=C(Cc1cc(Cl)cc(N2CCC(Oc3ccccc3)CC2)c1)Nc1cncc2ccccc12 | 1.73 µM
O=C(Cc1cccc(Cl)c1)N1Cc2ccccc2C(O)C1 (stereo not drawn) | 14.8 µM
O=C(Cc1cc(Cl)cc(Nc2cncc(Br)c2)c1)Nc1cncc2ccccc12 | 2.16 µM
CN(C)C(=O)COCC1(C(=O)Nc2cncc3ccccc23)CCOc2ccc(Cl)cc21 (stereo not drawn) | 0.652 µM
N#Cc1cccc(NC(=O)Nc2cncc(N)c2)c1 | 54.3 µM
O=C(O)CN1C(=O)C(=O)c2cc([N+](=O)[O-])ccc21 | > 99.5 µM
C[C@H](Nc1cc(Cl)cc(CC(=O)Nc2cncc3ccccc23)c1)c1cccc2ccccc12 (stereo in doubt) | 3.53 µM
O=C(Nc1cncc2ccccc12)C1CN(C(=O)c2ncco2)Cc2ccc(Cl)cc21 (stereo not drawn) | 0.918 µM
O=C(NCc1ccc(Cl)cc1CN1CCN(C(=O)CCl)CC1)[C@@H]1CCCOC1 (stereo in doubt) | 12.1 µM
N#Cc1cc(Cl)c(Nc2cc(Cl)cc(CC(=O)Nc3cncc4ccccc34)c2)c(Cl)c1 | 1.79 µM
CNC(=O)CN1C[C@]2(CC(=O)N(c3cncc4ccccc34)C2=O)c2cc(Cl)ccc2C1=O (stereo in doubt) | 84.6 µM
CNC(=O)N1CCc2ccc(Cl)cc2C1C(=O)Nc1cncc2ccccc12 (stereo not drawn) | 2.47 µM
CNC(=O)CN1CC(C(=O)Nc2cncc3ccc(S(C)(=O)=O)cc23)c2cc(Cl)ccc2C1=O (stereo not drawn) | 0.33 µM
Cn1cnc2cc(N(C(=O)c3cnc[nH]3)C(C(=O)NCCc3cccc(F)c3)c3cccnc3)ccc21 (stereo not drawn) | > 99 µM
CC(NCc1cnc2ccccn12)c1nnc2ccccn12 (stereo not drawn) | > 99.5 µM
CC(C)(C)c1ccc(N(C(=O)C2CCCN2)C(C(=O)NCCc2cccc(F)c2)c2cccnc2)cc1 (stereo not drawn) | > 99.5 µM
O=C(Cc1cc(Cl)cc(Nc2ccc(OCc3ccccn3)c(Cl)c2)c1)Nc1cncc2ccccc12 | 2.09 µM
O=C(Cc1cccc(Cl)c1)Nc1cncc2nc[nH]c12 | 13.3 µM
c1ccc2oc(C3CCCN(Cc4cnc5cnccn45)C3)nc2c1 (stereo not drawn) | > 99.5 µM
Cc1ccncc1NC(=O)Cc1cncc(Cl)c1 | 46.4 µM
O=C(Nc1cncc2sc(Cl)cc12)C1CCOc2ccc(Cl)cc21 (stereo not drawn) | 1.03 µM
O=C(Nc1ccccc1)[C@@H](c1ccccc1)N1Cc2ccccc2C1=O (stereo in doubt) | > 99.5 µM
CNC(=O)CN1CC(C(=O)Nc2cncc3cc(NS(C)(=O)=O)ccc23)c2cc(Cl)ccc2C1=O (stereo not drawn) | < 0.05 µM and 0.0442 µM
O=C(Cc1cc(Cl)cc(NCc2cc(F)c(F)c(F)c2)c1)Nc1cncc2ccccc12 | 3.4 µM
